Reference: patent publication US20120329653A1, “SYNERGISTIC HERBICIDAL COMPOSITION CONTAINING PENOXSULAM AND PENDIMETHALIN” (DOW AGROSCIENCES LLC, priority 2011, published 2012)

Columns and labels:
Format in all cases: in vivo
[1] = tested on: Alopecurus myosuroides (blackgrass); assay: Preemergence field trial in perennial tree crops, % weed control; conditions: 206 days after application
Method: (§1) Field trials were conducted in rice and tree crops using standard herbicide small plot research methodology. Plot size was typical for small plot research, varying from 2 to 4 meters (m) wide by 6.7 to 10 meters long. There were 3 to 4 replicates per treatment. Soil types ranged from medium to fine soil texture. Rice or cereal crops were sown by mechanical direct dry seeding as per normal local cultural practices. The rice or cereal crop was grown using normal cultural practices for fertilization, watering, flooding and maintenance to ensure good growth of the crop and the weeds.
(§2) Treatments were applied by backpack sprayer using either compressed air or CO2, at spray pressures from 124 to 276 kilopascals (kPa). Spray tips were typically Flat Fan Teejet nozzles, such as TJ8002 to TJ110015 or XR11001. Spray volumes varied from 93.5 to 250 liters per hectare (L/ha). Penoxsulam was applied as the commercial products Grasp SC (240 gr ai/L) or Clipper 20 OD (20 grams ai/L); pendimethalin was applied as the commercial product Prowl EC.
(§3) For each treatment, the appropriate formulated product amount to treat the plot area, to achieve the desired application rate, based on unit area of application (hectare), was calculated, measured, and mixed in water prior to applying with the backpack sprayer. Treatments were rated as compared to the untreated control plots.
(§4) The treated plots and control plots were rated blind at various intervals after application. Ratings were based of Percent (%) Visual weed control, where 0 corresponds to no injury and 100 corresponds to complete kill.
(§5) Colby's equation was used to determine the herbicidal effects expected from the mixtures (Colby, S. R. Calculation of the synergistic and antagonistic response of herbicide combinations. Weeds 1967, 15, 20-22).
(§6) The following equation was used to calculate the expected activity of mixtures containing two active ingredients, A and B:
(§7) A=observed efficacy of active ingredient A at the same concentration as used in the mixture;
(§8) B=observed efficacy of active ingredient B at the same concentration as used in the mixture.

[2] = tested on: Alternanthera philoxeroides (alligatorweed); assay: Preemergence field trial in seeded rice, % visual weed control; conditions: USA, 22 to 54 days after application
Method: as §1, §2, §3, §4, §5, §6, §7, §8

[3] = tested on: Echinochloa colonum (junglerice); assay: as above; conditions: 60 days after application
Method: as §1, §2, §3, §4, §5, §6, §7, §8

[4] = tested on: Ipomoea spp. (morningglory); assay: as above; conditions: Texas, USA, 22 to 54 days after application
Method: as §1, §2, §3, §4, §5, §6, §7, §8

SEBEX = assay: as above; conditions: 22 to 54 days after application
Method: as §1, §2, §3, §4, §5, §6, §7, §8

[5] = tested on: Ischaemum rugosum (saramollagrass); assay: as above; conditions: 60 days after application
Method: as §1, §2, §3, §4, §5, §6, §7, §8

| SMILES | % Control ALOMY Obs ([1]; penoxsulam 10 gai/ha) [%] | % Control ALOMY Obs ([1]; penoxsulam 20 gai/ha) [%] | % Control ALOMY Obs ([1]; penoxsulam 30 gai/ha) [%] | % Control ALOMY Obs ([1]; penoxsulam 40 gai/ha) [%] | % Visual Control ALRPH Obs ([2]; penoxsulam 20 gai/ha, Arkansas) [%] | % Visual Control ALRPH Obs ([2]; penoxsulam 20 gai/ha, Texas) [%] | % Visual Control ECHCO Obs ([3]; penoxsulam 20 gai/ha) [%] | % Visual Control IPOSS Obs ([4]; penoxsulam 20 gai/ha) [%] | % Visual Control SEBEX Obs (SEBEX; penoxsulam 40 gai/ha) [%] | % Visual Control ISCRU Obs ([5]; penoxsulam 30 gai/ha) [%] | % Control ALOMY Obs ([1]; pendimethalin 500 gai/ha) [%] | % Control ALOMY Obs ([1]; pendimethalin 1000 gai/ha) [%] | % Visual Control ALRPH Obs ([2]; pendimethalin 1100 gai/ha, Arkansas) [%] | % Visual Control ALRPH Obs ([2]; pendimethalin 1100 gai/ha, Texas) [%] | % Visual Control ECHCO Obs ([3]; pendimethalin 750 gai/ha) [%] | % Visual Control IPOSS Obs ([4]; pendimethalin 1100 gai/ha) [%] | % Visual Control SEBEX Obs (SEBEX; pendimethalin 1100 gai/ha) [%] | % Visual Control ISCRU Obs ([5]; pendimethalin 750 gai/ha) [%] |
| --- | --- | --- | --- | --- | --- | --- | --- | --- | --- | --- | --- | --- | --- | --- | --- | --- | --- | --- |
| COc1cnc(OC)n2nc(NS(=O)(=O)c3c(OCC(F)F)cccc3C(F)(F)F)nc12 [Penoxsulam] | 0 | 20 | 43 | 50 | 43 | 74 | 25 | 21 | 40 | 35 | – | – | – | – | – | – | – | – |
| CCC(CC)Nc1c([N+](=O)[O-])cc(C)c(C)c1[N+](=O)[O-] [Pendimethalin, N-(1-ethylpropyl)-3,4-dimethyl-2,6-dinitrobenzenamine] | – | – | – | – | – | – | – | – | – | – | 0 | 7 | 0 | 0 | 55 | 35 | 14 | 57 |
